According to ChEMBL document CHEMBL5233257, “Anticancer property of ginsenoside Rh2 from ginseng” (Eur J Med Chem, 2020):
≈ marks a conversion by molar mass, not a printed value.

Experiments:
HepG2 [1] = experiment: Induction of apoptosis in human HepG2 beta-catenin cells incubated for 72 hrs by PI/Annexin V-FITC analysis; format: functional, cell-based; settings: HepG2, 72 h
Huh-7 = experiment: Induction of cell death in human Huh-7 cells; format: functional, cell-based
PC-3 [2] = experiment: Antiproliferative activity against human PC-3 cells incubated for 3 days; format: functional, cell-based; settings: PC-3, 72 h
[3] = Cytotoxicity against human KK cells assessed as reduction in cell viability measured after 5 days by crystal violet staining based analysis; format: functional; settings: 120 h
HL-60 [4] = experiment: Cytotoxicity against human HL-60 cells measured after 24 hrs by MTT assay; format: functional, cell-based; settings: HL-60, 24 h
HepG2 [5] = experiment: Induction of apoptosis in human HepG2 cells incubated for 72 hrs; format: functional, cell-based; settings: HepG2, 72 h
MDA-MB-231 [6] = experiment: Antiproliferative activity against human MDA-MB-231 cells; format: functional, cell-based
[7] = Cytotoxicity against human HRA cells assessed as reduction in cell viability measured after 5 days by crystal violet staining based analysis; format: functional; settings: 120 h
MCF7 [8] = experiment: Induction of apoptosis in human MCF7 cells assessed as inhibition of cell viability; format: functional, cell-based
[9] = Cytotoxicity against human KF cells assessed as reduction in cell viability measured after 5 days by crystal violet staining based analysis; format: functional; settings: 120 h
PC-3 [10] = experiment: Antiproliferative activity against human PC-3 cells; format: functional, cell-based
[11] = Cytotoxicity against human KFR cells assessed as reduction in cell viability measured after 5 days by crystal violet staining based analysis; format: functional; settings: 120 h
HepG2 [12] = experiment: Induction of cell death in human HepG2 cells assessed as lethal dose; format: functional; settings: read-out: LD50 (the source's name)
HL-60 [13] = experiment: Induction of apoptosis in human HL-60 cells assessed as reduction in cell viability incubated for 72 hrs by CCK-8 assay; format: functional, cell-based; settings: HL-60, 72 h
THP-1 = experiment: Induction of apoptosis in human THP-1 cells; format: functional, cell-based
[14] = Inhibition of proliferation in human Jurkat cells assessed as reduction in cell viability incubated for 48 hrs by CCK-8 assay; format: functional, cell-based
U-937 = experiment: Cytotoxicity against human U-937 cells measured after 24 hrs by MTT assay; format: functional, cell-based; settings: U-937, 24 h
MDA-MB-231 [15] = experiment: Induction of apoptosis in human MDA-MB-231 cells assessed as inhibition of cell viability; format: functional, cell-based
LNCaP [16] = experiment: Antiproliferative activity against human LNCaP cells incubated for 3 days; format: functional, cell-based; settings: 72 h
MCF7 [17] = experiment: Antiproliferative activity against human MCF7 cells; format: functional, cell-based
SK-HEP1 = experiment: Induction of apoptosis in human SK-HEP1 cells incubated for 2 hrs by fluorescence microscopic analysis; format: functional, cell-based; settings: SK-HEP1, 2 h
B16 = experiment: Growth inhibition of mouse B16 cells; format: functional, cell-based
LNCaP [18] = experiment: Antiproliferative activity against human LNCaP cells; format: functional, cell-based
HepG2 [19] = experiment: Induction of apoptosis in human HepG2 cells incubated for 72 hrs by PI/Annexin V-FITC analysis; format: functional, cell-based; settings: HepG2, 72 h
HeLa = experiment: Induction of apoptosis in human HeLa cells incubated for 2 hrs by fluorescence microscopic analysis; format: functional, cell-based
MDA-MB-231 [20] = experiment: Induction of cell death in human MDA-MB-231 cells; format: functional, cell-based
HepG2 [21] = experiment: Induction of apoptosis in human HepG2 cells incubated for 24 hrs; format: functional, cell-based; settings: HepG2, 24 h
KG-1 [22] = experiment: Cytotoxicity against human KG-1 alpha cells; format: functional, cell-based
HCT-116 [23] = experiment: Induction of cell death in human HCT-116 cells incubated for 48 hrs by trypan blue staining based analysis; format: functional; settings: HCT-116, 48 h
HCT-116 [24] = experiment: Cytotoxicity against human HCT-116 assessed as reduction in cell viability by MTT assay; format: functional, cell-based
HepG2 [25] = experiment: Induction of apoptosis in human HepG2 beta-catenin cells incubated for 48 hrs by PI/Annexin V-FITC analysis; format: functional, cell-based; settings: HepG2, 48 h
SW480 [26] = experiment: Induction of cell death in human SW480 cells incubated for 48 hrs by trypan blue staining based analysis; format: functional; settings: SW480, 48 h
Kasumi 1 = experiment: Induction of apoptosis in human Kasumi 1 cells assessed as reduction in cell viability incubated for 72 hrs by CCK-8 assay; format: functional, cell-based; settings: Kasumi 1, 72 h
HL-60 [27] = experiment: Induction of apoptosis in human HL-60 cells; format: functional, cell-based
[28] = Induction of apoptosis in human HK-1 cells; format: functional, cell-based
SW480 [29] = experiment: Induction of apoptosis in human SW480 cells incubated for 2 hrs by fluorescence microscopic analysis; format: functional, cell-based; settings: SW480, 2 h
DU-145 = experiment: Antiproliferative activity against human DU-145 cells incubated for 3 days; format: functional, cell-based; settings: DU-145, 72 h
B16-F10 = experiment: Induction of cell death in mouse B16-F10 cells; format: functional, cell-based
HepG2 [30] = experiment: Induction of apoptosis in human HepG2 cells incubated for 48 hrs by PI/Annexin V-FITC analysis; format: functional, cell-based; settings: HepG2, 48 h
REH = experiment: Induction of apoptosis in human REH cells; format: functional, cell-based
KG-1 [31] = experiment: Cytotoxicity against human KG-1 alpha cells incubated for 48 hrs by CCK-8 assay; format: functional, cell-based; settings: KG-1, 48 h
K562 = experiment: Cytotoxicity against human K562 cells incubated for 48 hrs by CCK-8 assay; format: functional, cell-based; settings: K562, 48 h
A549 = experiment: Antiproliferative activity against human A549 cells; format: functional, cell-based
Jurkat = experiment: Induction of apoptosis in human Jurkat cells; format: functional, cell-based

CC(C)=CCC[C@](C)(O)[C@H]1CC[C@]2(C)[C@@H]1[C@H](O)C[C@@H]1[C@@]3(C)CC[C@H](O[C@@H]4O[C@H](CO)[C@@H](O)[C@H](O)[C@H]4O)C(C)(C)[C@@H]3CC[C@]12C [GINSENOSIDE RH2]
IC50 (HepG2 [1]): 83.3 µM | IC50 (Huh-7): 39 µM | IC50 (PC-3 [2]): 35 µM | IC50 [3]: 45 µM | IC50 (HL-60 [4]): 38 µM | IC50 (HepG2 [5]): 1.65 µg/mL (≈ 2.65 µM) | EC50 (MDA-MB-231 [6]): 57.4 µM | IC50 [7]: 30 µM | IC50 (MCF7 [8]): 50 µM | IC50 [9]: 40 µM | EC50 (PC-3 [10]): 5.5 µM | IC50 [11]: 41 µM | CC50 (HepG2 [12]): 10 µM | IC50 (HL-60 [13]): 25.6 µM | IC50 (THP-1): 15 µg/mL (≈ 24.1 µM) | CC50 (THP-1; read-out: LC50 (the source's name)): 15 µg/mL (≈ 24.1 µM) | IC50 [14]: 35 µM | IC50 (U-937): 38 µM | IC50 (MDA-MB-231 [15]): 50 µM | IC50 (LNCaP [16]): 17 µM | EC50 (MCF7 [17]): 52.5 µM | IC50 (SK-HEP1): 3.15 µg/mL (≈ 5.06 µM) | IC50 (B16): 4.1 µg/mL (≈ 6.58 µM) | EC50 (LNCaP [18]): 4.4 µM | IC50 (HepG2 [19]): 58.1 µM | IC50 (HeLa): 2.52 µg/mL (≈ 4.05 µM) | IC50 (MDA-MB-231 [20]): 39.9 µM | IC50 (HepG2 [21]): 42.1 µM | IC50 (KG-1 [22]): 75 µM | IC50 (HCT-116 [23]): 35 µM | IC50 (HCT-116 [24]): 19.6 µM | IC50 (HepG2 [25]): 129 µM | IC50 (SW480 [26]): 35 µM | IC50 (Kasumi 1): 60.1 µM | IC50 (HL-60 [27]): 25 µM | IC50 [28]: 12 µM | IC50 (SW480 [29]): 4.06 µg/mL (≈ 6.52 µM) | IC50 (DU-145): 38 µM | IC50 (B16-F10): 35.6 µM | IC50 (HepG2 [30]): 100 µM | IC50 (REH): 40 µM | IC50 (KG-1 [31]): 60 µM | IC50 (K562): 60 µM | IC50 (A549): 28.5 µg/mL (≈ 45.8 µM) | IC50 (Jurkat): 35 µM
